Laboratory results reported in patent US20250127801A1, “BRIDGED TRICYCLIC CARBAMOYLPYRIDONE COMPOUNDS AND USES THEREOF” (priority 2023, published 2025).
Values after ≈ are worked out from the molar mass of the structure shown. Where two headings read alike, the source gives them in different places.

Key:
physchem = conditions: 23 °C, thermodynamic from solid; for solubility thermodynamic: fassif; for solubility thermodynamic at 24 h: FaSSIF
HIV-1 (IIIB) = experiment: microbe, parasite or virus in culture; type: cell-based
in vitro = conditions: human; for CC50 at 5 days: uninfected MT-4 cells
[1] = Human immunodeficiency virus 1, IIIB, MT4, 120 h, read-out: MT4 EC50 (nM)
[2] = Human immunodeficiency virus 1, MT4, 120 h, HIV-1 (IIIB) replication in MT-4 cells, 5 days incubation, Cell Titer Glo, read-out: MT4 EC50

solubility thermodynamic at 24 h (physchem) [µg/mL]	EC50 (HIV-1 (IIIB); [2]) [nM]	SMILES	solubility thermodynamic (physchem) [µg/mL]	EC50 (HIV-1 (IIIB); [1]) [nM]	CC50 (in vitro) [nM]	CC50 at 5 days (in vitro) [nM]
–	–	CC1=NO[C@@]2(CC[C@H](C)N3C[C@H]2n2cc(C(=O)NCc4ccc(F)cc4F)c(=O)c(OC(=O)N(C)c4ncccc4COP(=O)(O)O)c2C3=O)C1 [Compound 1, (3′S,5S,7′R)-10′-((2,4-difluorobenzyl)carbamoyl)-3,3′-dimethyl-1′,11′-dioxo-1′,4′,5′,11′-tetrahydro-3′H,4H,7′H-spiro[isoxazole-5,6′-[2,7]methanopyrido[1,2-a][1,4]diazonin]-12′-yl methyl(3-((phosphonooxy)methyl)pyridin-2-yl)carbamate]	4900 (≈ 6.71 mM)	3.48	15900	–
4950 (≈ 6.51 mM)	1.49	CC1=NO[C@@]2(CC[C@H](C)N3C[C@H]2n2cc(C(=O)NCc4ccc(F)cc4F)c(=O)c(OCOC(=O)N(C)c4ncccc4COP(=O)(O)O)c2C3=O)C1 [Compound 2, (((3′S,5S,7′R)-10′-((2,4-difluorobenzyl)carbamoyl)-3,3′-dimethyl-1′,11′-dioxo-1′,4′,5′,11′-tetrahydro-3′H,4H,7′H-spiro[isoxazole-5,6′-[2,7]methanopyrido[1,2-a][1,4]diazonin]-12′-yl)oxy)methyl methyl(3-((phosphonooxy)methyl)pyridin-2-yl)carbamate]	–	–	–	10200
5410 (≈ 6.97 mM)	2.15	COC1=NO[C@@]2(CC[C@H](C)N3C[C@H]2n2cc(C(=O)NCc4ccc(F)cc4F)c(=O)c(OCOC(=O)N(C)c4ncccc4COP(=O)(O)O)c2C3=O)C1 [Compound 3, (((3′S,5S,7′R)-10′-((2,4-difluorobenzyl)carbamoyl)-3-methoxy-3′-methyl-1′,11′-dioxo-1′,4′,5′,11′-tetrahydro-3′H,4H,7′H-spiro[isoxazole-5,6′-[2,7]methanopyrido[1,2-a][1,4]diazonin]-12′-yl)oxy)methylmethyl(3-((phosphonooxy)methyl)pyridin-2-yl)carbamate]	–	–	–	12600
–	–	CC1=NO[C@@]2(CC[C@H](C)N3C[C@H]2n2cc(C(=O)NCc4ccc(F)cc4F)c(=O)c(OC(=O)N(C)c4ncc(C(=O)O)cc4COP(=O)(O)O)c2C3=O)C1 [Compound 4, 6-(((((3′S,5S,7′R)-10′-((2,4-difluorobenzyl)carbamoyl)-3,3′-dimethyl-1′,11′-dioxo-1′,4′,5′,11′-tetrahydro-3′H,4H,7′H-spiro[isoxazole-5,6′-[2,7]methanopyrido[1,2-a][1,4]diazonin]-12′-yl)oxy)carbonyl)(methyl)amino)-5-((phosphonooxy)methyl)nicotinic acid]	4800 (≈ 6.2 mM)	14.8	≥ 50000	–
–	–	CC1=NO[C@@]2(CC[C@H](C)N3C[C@H]2n2cc(C(=O)NCc4ccc(F)cc4F)c(=O)c(OC(=O)N(C)c4ncccc4CN(CC(=O)OC(C)(C)C)C(=O)OCOP(=O)(O)O)c2C3=O)C1 [Compound 5, tert-butyl N-((2-(((((3′S,5S,7′R)-10′-((2,4-difluorobenzyl)carbamoyl)-3,3′-dimethyl-1′,11′-dioxo-1′,4′,5′,11′-tetrahydro-3′H,4H,7′H-spiro[isoxazole-5,6′-[2,7]methanopyrido[1,2-a][1,4]diazonin]-12′-yl)oxy)carbonyl)(methyl)amino)pyridin-3-yl)methyl)-N-(((phosphonooxy)methoxy)carbonyl)glycinate]	4010 (≈ 4.37 mM)	1.24	10300	–
–	–	CC1=NO[C@@]2(CC[C@H](C)N3C[C@H]2n2cc(C(=O)NCc4ccc(F)cc4F)c(=O)c(OC(=O)N(C)c4ncccc4CN(CC(=O)O)C(=O)OCOP(=O)(O)O)c2C3=O)C1 [Compound 6, N-((2-(((((3′S,5S,7′R)-10′-((2,4-difluorobenzyl)carbamoyl)-3,3′-dimethyl-1′,11′-dioxo-1′,4′,5′,11′-tetrahydro-3′H,4H,7′H-spiro[isoxazole-5,6′-[2,7]methanopyrido[1,2-a][1,4]diazonin]-12′-yl)oxy)carbonyl)(methyl)amino)pyridin-3-yl)methyl)-N-(((phosphonooxy)methoxy)carbonyl)glycine]	4810 (≈ 5.58 mM)	0.917	10100	–
4660 (≈ 5.22 mM)	1.48	CC1=NO[C@@]2(CC[C@H](C)N3C[C@H]2n2cc(C(=O)NCc4ccc(F)cc4F)c(=O)c(OCOC(=O)N(C)c4ncccc4CN(CC(=O)O)C(=O)OCOP(=O)(O)O)c2C3=O)C1 [Compound 7, N-((2-((((((3′S,5S,7′R)-10′-((2,4-difluorobenzyl)carbamoyl)-3,3′-dimethyl-1′,11′-dioxo-1′,4′,5′,11′-tetrahydro-3′H,4H,7′H-spiro[isoxazole-5,6′-[2,7]methanopyrido[1,2-a][1,4]diazonin]-12′-yl)oxy)methoxy)carbonyl)(methyl)amino)-pyridin-3-yl)methyl)-N-(((phosphonooxy)methoxy)carbonyl)glycine]	–	–	–	10800
–	–	CC1=NO[C@@]2(CC[C@H](C)N3C[C@H]2n2cc(C(=O)NCc4ccc(F)cc4F)c(=O)c(OC(=O)OCc4ccccc4OP(=O)(O)O)c2C3=O)C1 [Compound 32, (3′S,5S,7′R)-10′-((2,4-difluorobenzyl)carbamoyl)-3,3′-dimethyl-1′,11′-dioxo-1′,4′,5′,11′-tetrahydro-3′H,4H,7′H-spiro[isoxazole-5,6′-[2,7]methanopyrido[1,2-a][1,4]diazonin]-12′-yl (2-(phosphonooxy)benzyl) carbonate]	1330 (≈ 1.86 mM)	–	–	–
–	2.05	CC1=NO[C@@]2(CC[C@H](C)N3C[C@H]2n2cc(C(=O)NCc4ccc(F)cc4F)c(=O)c(OCOC(=O)O[C@H]4CCCCC[C@@H]4OP(=O)(O)O)c2C3=O)C1 [Compound 77, (((3′S,5S,7′R)-10′-((2,4-difluorobenzyl)carbamoyl)-3,3′-dimethyl-1′,11′-dioxo-1′,4′,5′,11′-tetrahydro-3′H,4H,7′H-spiro[isoxazole-5,6′-[2,7]methanopyrido[1,2-a][1,4]diazonin]-12′-yl)oxy)methyl ((1S,2S)-2-(phosphonooxy)cycloheptyl) carbonate]	–	–	–	19400
–	–	CC1=NO[C@@]2(CC[C@H](C)N3C[C@H]2n2cc(C(=O)NCc4ccc(F)cc4F)c(=O)c(OCOC(=O)CC(C)(C)c4c(CC(=O)NCP(=O)(O)O)cc(C)cc4OP(=O)(O)O)c2C3=O)C1 [Compound 81, ((2-(2-(4-((((3′S,5S,7′R)-10′-((2,4-difluorobenzyl)carbamoyl)-3,3′-dimethyl-1′,11′-dioxo-1′,4′,5′,11′-tetrahydro-3′H,4H,7′H-spiro[isoxazole-5,6′-[2,7]methanopyrido[1,2-al][1,4]diazonin]-12′-yl)oxy)methoxy)-2-methyl-4-oxobutan-2-yl)-5-methyl-3-(phosphonooxy)phenyl)acetamido)methyl)phosphonic acid]	–	2.09	14400	–
–	–	CC1=NO[C@@]2(CC[C@H](C)N3C[C@H]2n2cc(C(=O)NCc4ccc(F)cc4F)c(=O)c(OC(=O)N(C)c4ncccc4CN(CCC(F)(F)F)C(=O)OCOP(=O)(O)O)c2C3=O)C1 [Compound 82, (3′S,5S,7′R)-10′-((2,4-difluorobenzyl)carbamoyl)-3,3′-dimethyl-1′,11′-dioxo-1′,4′,5′,11′-tetrahydro-3′H,4H,7′H-spiro[isoxazole-5,6′-[2,7]methanopyrido[1,2-a][1,4]diazonin]-12′-yl methyl(3-(((((phosphonooxy)methoxy)carbonyl)(3,3,3-trifluoropropyl)amino)methyl)pyridin-2-yl)carbamate]	–	2.17	8520	–
–	–	COCCN(Cc1cccnc1N(C)C(=O)Oc1c2n(cc(C(=O)NCc3ccc(F)cc3F)c1=O)[C@@H]1CN(C2=O)[C@@H](C)CC[C@]12CC(C)=NO2)C(=O)OCOP(=O)(O)O [Compound 83, (3′S,5S,7′R)-10′-((2,4-difluorobenzyl)carbamoyl)-3,3′-dimethyl-1′,11′-dioxo-1′,4′,5′,11′-tetrahydro-3′H,4H,7′H-spiro[isoxazole-5,6′-[2,7]methanopyrido[1,2-a][1,4]diazonin]-12′-yl (3-(((2-methoxyethyl)(((phosphonooxy)methoxy)carbonyl)amino)methyl)pyridin-2-yl)(methyl)carbamate]	–	1.36	13200	–
–	5.07	CCCCCCCCCCCCCC(=O)OCc1ccccc1C(=O)Oc1c2n(cc(C(=O)NCc3ccc(F)cc3F)c1=O)[C@@H]1CN(C2=O)[C@@H](C)CC[C@]12CC(OC)=NO2 [Compound 91, (3′S,5S,7′R)-10′-((2,4-difluorobenzyl)carbamoyl)-3-methoxy-3′-methyl-1′,11′-dioxo-1′,4′,5′,11′-tetrahydro-3′H,4H,7′H-spiro[isoxazole-5,6′-[2,7]methanopyrido[1,2-a][1,4]diazonin]-12′-yl 2-((tetradecanoyloxy)methyl)benzoate]	–	–	–	≥ 50000
–	3.49	CCCCCCCCCCCCCC(=O)Oc1ccc(CC(=O)Oc2c3n(cc(C(=O)NCc4ccc(F)cc4F)c2=O)[C@@H]2CN(C3=O)[C@@H](C)CC[C@]23CC(OC)=NO3)cc1 [Compound 95, [4-[2-[(1R,10S,13S)-4-[(2,4-difluorophenyl)methylcarbamoyl]-3′-methoxy-10-methyl-5,8-dioxo-spiro[2,9-diazatricyclo[7.4.1.02,7]tetradeca-3,6-diene-13,5′-4H-isoxazole]-6-yl]oxy-2-oxo-ethyl]phenyl] tetradecanoate]	–	–	–	≥ 50000
–	1.91	COC1=NO[C@@]2(CC[C@H](C)N3C[C@H]2n2cc(C(=O)NCc4ccc(F)cc4F)c(=O)c(OCc4oc(=O)oc4C)c2C3=O)C1 [Compound 103, (3′S,5S,7′R)—N-(2,4-difluorobenzyl)-3-methoxy-3′-methyl-12′-((5-methyl-2-oxo-1,3-dioxol-4-yl)methoxy)-1′,11′-dioxo-1′,4′,5′,11′-tetrahydro-3′H,4H,7′H-spiro[isoxazole-5,6′-[2,7]methanopyrido[1,2-a][1,4]diazonine]-10′-carboxamide]	–	–	–	18900
